We go through 14 compounds from US20030026831A1, “Anionic liposomes for delivery of bioactive agents” (priority 2001, published 2003).

Like-named read-outs stand apart in the source and are kept apart here.

Data set [1] has as its system hippocampal neurons. It counts as cell-based, rat. The note with it: for Neuronal survival after glutamate: survival at 48 hours. The method, then: Hippocampal Cell Culture. Primary cultures of hippocampal neurons were prepared from neonatal rat pups (p1 or p2) as previously described (Dubinsky, 1993). Neurons were plated at a density of 60,000 cells/cm^2 onto polylysine-coated plastic 12-well plates or 100 mm dishes (Becton Dickinson, Franklin Lakes, N.J.) in Neurobasal medium with B27 supplements (Life technologies, Rockville, Md.) and 0.5 mM glutamine. Fluorodeoxyuridine (15 μg/ml) was added to the cultures 24 hours after plating to inhibit glial growth. Under these culture conditions, the survival and growth of non-neuronal cells was minimized. Cells were maintained at 37° C. in 95% air/5% CO2 and were used between 6-8 days in vitro.
Neuroprotection Experiments. […] The ratio of viable cells to the total number of neurons in the pre-selected fields was calculated for quantifying survival.

Data set [2] has as its system hippocampal neurons. Kind of data set: Lipid exacerbation of sub-maximal glutamate toxicity. The method, then: FIG. 9. […] Arrowhead: amount of anionic lipid present in liposomes corresponding to a 1 μM final concentration of ON. Arrow: amount of cationic lipid present in complexes corresponding to a +/−charge ratio of 1/2 and 1 μM final concentration of ON. 20, 40, and 100 μg DC-Chol/DOPE correspond to amounts present in complexes of +/−charge ratio 1.6/1, 3.2/1, and 8/1 (μmole lipid/μmole ON), respectively, for a 1 μM final ON concentration. Data expressed as Mean ±S.E.M., n≧9.
Neurons were treated with amounts of cationic lipid required to complex 1 μM ONs in +/−charge ratios (μmole lipid/μmole ON) of 1/2, 1.6/1, 3.2/1 and 8/1 (6.25, 20, 40 and 100 μg DC-Chol, respectively).

The subject of a further data set is neurons. Kind of data set: Toxicity screening of commercial cationic lipids. The note with it: 8 hours after incubation, compared to untreated controls.
Data set [3] has as its system hippocampal neurons. Kind of data set: Endocytosis assays: agents acting on AL-Cy3ON internalization. It counts as cell-based, rat. Particulars: 10 minutes pretreatment (0.45 M sucrose, 1 μM FK506, 500 nM RAP, 100 μg/ml heparin or protamine sulfate, 5 μg/ml nocodazole, 10 μg/ml cytochalasin D, 100 nM wortmannin), then AL-Cy3ONs 30 minutes at 37° C. The method, then:
Endocytosis Assays. The following agents were used to manipulate specific steps of the endocytic cycle: 0.45 M hyperosmolar sucrose (ICN biochemicals), 1 μM FK-506 (Calbiochem), and 100 nM wortmannin, 5 μg/ml nocodazole, 10 μg/ml cytochalasin D, 100 μg/ml heparin and 100 μg/ml protamine sulfate, (all from Sigma-Aldrich). Receptor-associated protein (RAP) was a generous gift from Dr. Guojun Bu (Washington University, St. Louis, Mo.) and was used at a concentration of 500 nM (Bu et al., 1994). Cells were treated with the drugs or RAP for 10 minutes prior to incubation with AL-Cy3ONs for 30 minutes at 37° C. and fixed for imaging.
Confocal Microscopy and Image Analysis. Imaging was performed on a Leica TCS 4D confocal microscope (Deerfield, Ill.) equipped with a Mercury/Xenon lamp and argon/krypton laser. Cells were excited using the 488 nm laser line to detect Oregon Green 488-Transferrin and Alexa488-Dextran, and the emitted fluorescence was collected using a 515 long-pass filter. The 568 nm laser line was used to excite Cy3 and N—Rh-DOPE (LP590 emission). Cells were imaged at a plane midway between the substrate-attached plasma membrane and the top of the cell, such that neuronal nuclei were clearly identifiable. In some cases, the entire volume of the cell was scanned in 0.5 μm increments. Optimal images were obtained by averaging 16 images in the line-scan mode at the same fixed gains for all experiments. All fluorescent images presented in figures were equally contrast enhanced using ADOBE PHOTOSHOP (Adobe, Mountain View, Calif.).

The mark [4] stands for this setting: 20 μM each, added 1-2 minutes before 50 μM glutamate.
Setting [5] is: Lipid/ON (+/−) charge ratio 1/1.
Where [6] appears, read: Lipid/ON (+/−) charge ratio 2/1.

Take `N#Cc1cc2[nH]c(=O)c(=O)[nH]c2cc1[N+](=O)[O-]` [CNQX]: the “Neuronal survival after glutamate” value in the data set with hippocampal neurons [1] (setting [4]) is reported as “significantly increased the survival of glutamate-treated neurons”.
With `CC(C)CCC[C@@H](C)[C@H]1CC[C@H]2[C@@H]3CC=C4C[C@@H](OC(=O)NCCN(C)C)CC[C@]4(C)[C@H]3CC[C@]12C` [DC-Chol, 3β-[N-(N′,N′-dimethylaminoethane)-carbamol] cholesterol], the “Neuronal survival” value in the data set on hippocampal neurons [2] (6.25 μg DC-Chol (+/− charge ratio 1/2 for 1 μM ON), 48 hours post-glutamate) is “survived 48 hours post-glutamate”; in the data set with hippocampal neurons [2] (20, 40 and 100 μg DC-Chol (charge ratios 1.6/1, 3.2/1, 8/1), 48 hours post-glutamate) it was “caused extensive neuronal loss”. For the same compound, the “% Neuronal survival” value in the data set on neurons (setting [5]) is reported as 45.7%; with neurons (setting [6]) it was 17.3%.
In the data set with hippocampal neurons [2] (40 μg lipid (liposomes without AsONs), then 10 μM glutamate for 48 hours), `CCCCCCCC/C=C\CCCCCCCC(=O)OC[C@H](COP(=O)(O)OC[C@H](N)C(=O)O)OC(=O)CCCCCCC/C=C\CCCCCCCC` [DOPS, 1,2-dioleoyl-sn-glycero-3-[phospho-L-serine]] yielded a Neuronal survival of 48%. Also, the “Effect of increasing amounts of lipid on glutamate toxicity” value in the data set with hippocampal neurons [2] (liposomes without AsONs, then 10 μM glutamate for 48 hours) was “dose-dependently exacerbate toxicity”.
Turning to `CCCCCCCC/C=C\CCCCCCCC(=O)OCC(C[N+](C)(C)C)OC(=O)CCCCCCC/C=C\CCCCCCCC` (stereo not drawn) [DOTAP, 1,2-dioleoyl-3-trimethylammonium-propane], the “% Neuronal survival” value is reported as 28.2% in the data set with neurons (setting [5]) and “˜0%” in the data set with neurons (setting [6]).
With `C[C@]12N[C@H](Cc3ccccc31)c1ccccc12` [MK-801], in the data set with hippocampal neurons [1] (setting [4]), the “Neuronal survival after glutamate” value is “significantly increased the survival of glutamate-treated neurons”.
`Cc1ccc(C(=O)Cn2c3c(sc2=N)CCCC3)cc1` [PFT-α, Pifithrin-α]: the “Concentrations toxic in hippocampal cultures” value in the data set on hippocampal neurons [1] lay within 20 to 100 µM. Also, the “Neuronal survival after glutamate” value with hippocampal neurons [1] (10 μM, added 3 hours before 50 μM glutamate) is reported as “significantly increased the survival of glutamate-treated neurons”. In addition, the Concentrations not protective in the data set on hippocampal neurons [1] (50 μM glutamate) lay within 0.5 to 7 µM.
For the compound `C=C1[C@@H](C)[C@H]2[C@H](Cc3ccccc3)NC(=O)[C@]23[C@H](OC(C)=O)/C=C/[C@@](C)(O)C(=O)[C@@H](C)C/C=C/[C@H]3[C@@H]1O` [cytochalasin D], the “Effect on binding/internalization of AL-Cy3ONs by neurons” value (“Effect on binding/internalization” for short) in the data set with hippocampal neurons [3] was “prevented both binding and internalization of the liposomes”.
As for `N[C@@H](CCC(=O)O)C(=O)O` [glutamate], the Neuronal survival in the data set with hippocampal neurons [2] (48 hour exposure to 10 μM glutamate alone) was found to be 71%.
As for `COC(=O)Nc1nc2ccc(C(=O)c3cccs3)cc2[nH]1` [nocodazole], the “Effect on binding/internalization” value in the data set on hippocampal neurons [3] is given as “intracellular transport was inhibited”.
Regarding `OC[C@H]1O[C@@](CO)(O[C@H]2O[C@H](CO)[C@@H](O)[C@H](O)[C@H]2O)[C@@H](O)[C@@H]1O` [sucrose], the “Effect on binding/internalization” value in the data set on hippocampal neurons [3] is on record as “completely prevented internalization”.
In the case of “RAP: 39 kDa LRP receptor-associated protein, inhibitor of all known ligand interactions of LRP”, in the data set with hippocampal neurons [3], the “Effect on binding/internalization” value was “both binding and internalization of anionic liposomes was inhibited”.
Turning to heparin, in the data set on hippocampal neurons [3], the “Effect on binding/internalization” value was “Neither heparin nor protamine altered the level of Cy3 fluorescence within neurons”.
“p53 phosphodiester AsONs: free phosphodiester 5′-CTGTGAATCCTCCATGAC-3′ (SEQ ID NO:2) (unmodified DNA; listed as Rattus norvegicus)”: the “Neuroprotection by free ONs” value in the data set with hippocampal neurons [1] (without encapsulation in anionic liposomes, 50 μM glutamate, 48 hours) is reported as “not neuroprotective”.
In the case of protamine sulfate, in the data set with hippocampal neurons [3], the “Effect on binding/internalization” value is on record as “Neither heparin nor protamine altered the level of Cy3 fluorescence within neurons”.
